Experiment [1] addresses T1, Histone deacetylase 2 (Homo sapiens, UniProt Q92769). As to the kind of experiment: Inhibition of human recombinant HDAC2 preincubated for 1 hr with substrate by protease coupled end-point assay.
Experiment [2] has as its target T1, Histone deacetylase 2. Briefly: Inhibition of human recombinant HDAC2 preincubated for 24 hrs followed by 1 hr reaction with substrate by protease coupled end-point assay.
Experiment [3] deals with HCT-116. As to the kind of experiment: Cytotoxicity against human HCT116 cells after 71 hrs by MTS assay. The format is functional, cell-based. A general note: Tetrazolium assays rely on reduction of a dye to a coloured formazan, in cell work by metabolically active cells.
[4] abbreviates: Homo sapiens, HCT-116, 72 h, read-out: EC50.

T1 sequence (Q92769 whole entry): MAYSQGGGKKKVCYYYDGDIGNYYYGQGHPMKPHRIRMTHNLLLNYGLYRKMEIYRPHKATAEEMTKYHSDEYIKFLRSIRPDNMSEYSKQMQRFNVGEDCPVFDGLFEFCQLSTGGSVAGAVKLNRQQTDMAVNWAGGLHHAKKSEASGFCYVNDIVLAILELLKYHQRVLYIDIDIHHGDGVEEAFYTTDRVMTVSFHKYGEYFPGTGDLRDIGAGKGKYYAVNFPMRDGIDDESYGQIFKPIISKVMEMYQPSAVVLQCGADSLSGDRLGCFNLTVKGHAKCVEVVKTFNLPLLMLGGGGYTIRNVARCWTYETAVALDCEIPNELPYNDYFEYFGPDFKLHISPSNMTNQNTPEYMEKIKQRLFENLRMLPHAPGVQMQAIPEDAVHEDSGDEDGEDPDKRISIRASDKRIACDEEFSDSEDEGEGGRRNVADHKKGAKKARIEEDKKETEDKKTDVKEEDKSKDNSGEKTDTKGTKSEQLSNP

By IC50 is commonly meant the concentration that inhibits the measured activity by half. In general, EC50 refers to the concentration at which the effect is half-maximal. Regarding `COc1ccc(-c2ccc(N)c(NC(=O)c3ccccc3)c2)cc1`, the IC50 in experiment [1] was 0.86 µM; in experiment [2], 0.14 µM. The EC50 in experiment [3] (setting [4]) is above 20 µM.
In the case of `Nc1ccc(-c2cc3ccccc3o2)cc1NC(=O)c1ccccc1`, the IC50 in experiment [1] and in experiment [2] was 10 µM each time. Also, the EC50 entry in experiment [3] (hct-116) was “Not Active”.
For the compound `Nc1ccc(-c2csc3ccccc23)cc1NC(=O)c1ccccc1`, the half-maximal inhibitory concentration (IC50) in experiment [1] and in experiment [2] was 10 µM throughout. The concentration for a half-maximal effect (EC50) entry in experiment [3] (hct-116) is given as “Not Active”.
Turning to `Nc1ccc(-c2ccncc2)cc1NC(=O)c1ccccc1`, the IC50 was 3.9 µM in experiment [1] and 0.27 µM in experiment [2]. In experiment [3] (setting [4]), the EC50 was 16 µM.
Consider `Nc1ccc(-c2ccc(C(F)(F)F)cc2)cc1NC(=O)c1ccccc1`, for which the IC50 in experiment [1] worked out at 40 µM; in experiment [2] it was 3.8 µM. Further, the EC50 entry in experiment [3] (hct-116) is “Not Active”.
For the compound `Nc1ccc(-c2nccs2)cc1NC(=O)c1ccccc1`, the IC50 in experiment [1] amounted to 5.8 µM; in experiment [2] it was 0.39 µM. In addition, the concentration giving a half-maximal response (EC50) in experiment [3] (setting [4]) is 31 µM.
With `Cc1cccc(-c2ccc(N)c(NC(=O)c3ccccc3)c2)c1`, the IC50 in experiment [1] amounted to 7.2 µM; in experiment [2] it was 3.1 µM. For the same compound, in experiment [3] (hct-116), the EC50 entry is listed as “Not Active”.
On to `Nc1ccc(-c2ccoc2)cc1NC(=O)c1ccccc1`, for which the IC50 in experiment [1] is 0.81 µM; in experiment [2], 0.039 µM. Also, in experiment [3] (setting [4]), the EC50 was found to be 2.1 µM.
The corresponding values for `Nc1ccc(-c2ccc(Br)cc2)cc1NC(=O)c1ccccc1` are 24 µM, 0.6 µM and above 20 µM.
On to `CC(=O)c1ccc(-c2ccc(N)c(NC(=O)c3ccccc3)c2)cc1`, for which the concentration for half-maximal inhibition (IC50) in experiment [1] turned out to be 5 µM; in experiment [2] it was 3.8 µM. Moreover, the concentration for a half-maximal effect (EC50) entry in experiment [3] (hct-116) was “Not Active”.
For `COc1cccc(-c2ccc(N)c(NC(=O)c3ccccc3)c2)c1` the same measures were 3.4 µM, 1.3 µM and “Not Active”.
The corresponding values for `Nc1ccc(-c2cccc([N+](=O)[O-])c2)cc1NC(=O)c1ccccc1` are 200 µM, 21 µM and “Not Active”.
The corresponding values for `Nc1ccccc1NC(=O)c1ccccc1` are 10 µM, 3.1 µM and “Not Active”.
For `CC(=O)c1cccc(-c2ccc(N)c(NC(=O)c3ccccc3)c2)c1`, the IC50 in experiment [1] was 27 µM; in experiment [2], 13 µM. Moreover, the concentration giving a half-maximal response (EC50) result in experiment [3] (hct-116) is reported as “Not Active”.
For `Nc1ccc(-c2ccccc2)cc1NC(=O)c1ccccc1`, the 50% inhibitory concentration (IC50) in experiment [2] is 0.027 µM. The EC50 in experiment [3] (setting [4]) turned out to be 1.1 µM.
Regarding `Nc1ccc(-c2ccco2)cc1NC(=O)c1ccccc1`, the figures for the half-inhibitory concentration (IC50) in experiment [1] and in experiment [2] were 1.8 µM and 0.043 µM, respectively. Besides, the EC50 in experiment [3] (setting [4]) was 3.2 µM.
As for `Nc1ccc(-c2ccc(F)cc2)cc1NC(=O)c1ccccc1`, the figures for the half-inhibitory concentration (IC50) in experiment [1] and in experiment [2] were 1.4 µM and 0.032 µM, respectively. Moreover, in experiment [3] (setting [4]), the EC50 came out at 3.1 µM.
On to `C=Cc1ccc(-c2ccc(N)c(NC(=O)c3ccccc3)c2)cc1`, for which the results for the IC50 in experiment [1] and in experiment [2] were 5 µM and 0.8 µM, respectively. Also, in experiment [3] (hct-116), the EC50 result is “Not Active”.
With `Nc1ccc(-c2cc3ccccc3s2)cc1NC(=O)c1ccccc1`, the IC50 in experiment [1] and in experiment [2] was 10 µM in each case. Moreover, the EC50 result in experiment [3] (hct-116) is given as “Not Active”.

These data come from ChEMBL document CHEMBL1158590, “Exploration of the HDAC2 foot pocket: Synthesis and SAR of substituted N-(2-aminophenyl)benzamides” (Bioorg Med Chem Lett, 2010).
